{"source": "paper PMC12197275", "about": "“Preclinical Pharmacokinetic Evaluation of Mithramycin and Mithramycin SA Tryptophan-Conjugated Analog” (Pharmaceutics, 2025)", "key": {"[1]": {"settings": "cited from earlier work"}, "[2]": {"test": "Plasma PK in male athymic nude mice, IV bolus 2 mg/kg (Study 1)", "settings": "male mouse, 2 mg/kg IV bolus", "method": "Four separate PK studies were conducted using nu/nu mice. For studies using destructive sampling, the animals were anesthetized under isoflurane gas and samples were collected through intracardiac puncture in heparinized syringes. […] Blood samples were collected (n = 3 mice/time point) by cardiac puncture at 5 and 30 min and at 1.5, 3, and 6 h. […] Blood samples (n = 3 mice/time point) were collected by cardiac puncture at 5 min, 30 min, 2 h, and 5 h. […] Three groups (n = 9/group) of nu/nu mice were dosed at 0.3 mg/kg, 1 mg/kg, and 3 mg/kg. The mice at each dose level were randomized into three groups of three mice. The sampling time points for the three doses were as follows: 10 min, 20 min, 30 min, 45 min, 1 h, 1.5 h, 2 h, 2.5 h, and 3 h for the 0.3 mg/kg group; 5 min, 15 min, 30 min, 1 h, 2 h, 3 h, 4 h, 6 h, and 8 h for the 1 mg/kg group; and 5 min, 15 min, 30 min, 1 h, 2 h, 4 h, 6 h, 9 h, and 12 h for the 3 mg/kg group. […] Blood samples (n = 2 mice/time point) were collected by cardiac puncture at 10 min, 30 min, 1 h, 3 h, and 6 h. After collection, blood samples were immediately centrifuged at 4000 g for 2 min, and plasma samples were immediately collected and placed on dry ice, followed by storage at −80 °C until analysis.\nPlasma samples above the calibration curve range were diluted, along with quality control (QC) samples, and values were accepted when the interpolated concentrations were within 15% of the nominal values."}, "[3]": {"test": "Plasma PK in male Sprague Dawley rats, IV bolus 0.5 mg/kg (Study 2)", "settings": "male rat, 0.5 mg/kg IV bolus", "method": "Rat PK studies were conducted using male Sprague Dawley rats (Study 2; Table 1). […] Blood samples were collected at three different time points by saphenous bleeding. The collection time points were at 5 min and 20 min and at 1, 3, 6, and 9 h. The blood samples were processed and stored as described above.\n(§1) All samples were processed and analyzed by LC-MS/MS using a bioanalytical method validated according to the FDA’s Bioanalytical Guidance, essentially as described by Eckenrode et al. with some modifications [15]. […] Plasma samples above the calibration curve range were diluted, along with quality control (QC) samples, and values were accepted when the interpolated concentrations were within 15% of the nominal values. The expected % recovery for both compounds was >90% [15, 16]. Analyte separation and detection were performed on a Sciex Exion HPLC system equipped with a C18 analytical column (Phenomenex Synergi 4 µm Fusion-RP 80A; 50 mm × 2 mm with a guard column) and coupled to a hybrid triple-quadrupole/linear ion trap mass spectrometer (Sciex QTrap 6500+ or 7500+, Framingham, MA, USA). A 0.6 mL/min gradient of 0.005% formic acid in water and 0.005% formic acid in acetonitrile was used to elute the analytes within a 5 min time window. […] The internal standard was the MTM oxime–tryptophan [5]. The instruments were controlled and the data were integrated and processed using Sciex OS software version 3.3.1.43.\n(§2) Only concentrations above the limit of quantification were used for NCA. The linear-up log-down trapezoidal integration method was used to estimate the area under the curve from time zero to the last measurable concentration–time point (AUClast). The terminal elimination rate constant (ke) was estimated by log-linear regression using the last three data points of the concentration–time profiles."}, "human plasma": {"system": "human plasma", "test": "Plasma protein binding by rapid equilibrium dialysis, human plasma", "method": "(§3) Protein binding was assessed in plasma derived from athymic nude (nu/nu) mice, Sprague Dawley rats, Cynomolgus monkeys, and humans. Plasma from athymic nude mice and Sprague Dawley rats was collected from animals housed locally. […] Plasma was collected by centrifuging the whole blood immediately upon collection, stored at 4 °C, and used within one week of storage for protein binding studies. The plasma was spiked with the compound to prepare 1, 3, and 10 µM final concentrations (0.1% DMSO (v/v)). Spiked plasma (100 µL) and PBS (350 µL) were placed in their respective chambers in the Pierce™ RED Device (12K MWCO; Linden Bioscience, Research Triangle Park, NC, USA) and incubated in a Talboys microplate shaker at 37 °C and 250 rpm for 4 h to achieve equilibrium. Post-dialysis samples were collected from the plasma and buffer chambers, matrix-matched with PBS and plasma, respectively, and analyzed by LC-MS/MS as detailed below. The experiments were performed in triplicate, and the unbound percentage was calculated based on the following equation [13]: fu=PBS chamber area ratio/Plasma chamber area ratio;Area ratio=analyte area/ISTD area\n(§4) All samples were processed and analyzed by LC-MS/MS using a bioanalytical method validated according to the FDA’s Bioanalytical Guidance, essentially as described by Eckenrode et al. with some modifications [15]. […] Plasma samples above the calibration curve range were diluted, along with quality control (QC) samples, and values were accepted when the interpolated concentrations were within 15% of the nominal values. […] Analyte separation and detection were performed on a Sciex Exion HPLC system equipped with a C18 analytical column (Phenomenex Synergi 4 µm Fusion-RP 80A; 50 mm × 2 mm with a guard column) and coupled to a hybrid triple-quadrupole/linear ion trap mass spectrometer (Sciex QTrap 6500+ or 7500+, Framingham, MA, USA). A 0.6 mL/min gradient of 0.005% formic acid in water and 0.005% formic acid in acetonitrile was used to elute the analytes within a 5 min time window. […] The internal standard was the MTM oxime–tryptophan [5]. The instruments were controlled and the data were integrated and processed using Sciex OS software version 3.3.1.43."}, "[4]": {"settings": "male monkey n=1, high microdose cassette: MTM 13.18 µg/kg, MTMSA-Trp 4.19 µg/kg, IV infusion", "method": "Two separate cassette dosing PK studies were conducted using male cynomolgus monkeys. […] The blood samples were processed and stored as described above.\nas §1"}, "[5]": {"test": "Cassette microdose plasma PK in male Sprague Dawley rats, 28 µg/kg (Study 6)", "method": "as §1, §2"}, "[6]": {"system": "plasma from athymic nude (nu/nu) mice", "test": "Plasma protein binding by rapid equilibrium dialysis, mouse plasma", "settings": "for Fraction Unbound (%): athymic nude mouse plasma", "method": "as §3, §4"}, "[7]": {"system": "plasma from Cynomolgus monkeys", "test": "Plasma protein binding by rapid equilibrium dialysis, monkey plasma", "settings": "Cynomolgus macaque plasma", "method": "as §3\n(§5) All samples were processed and analyzed by LC-MS/MS using a bioanalytical method validated according to the FDA’s Bioanalytical Guidance, essentially as described by Eckenrode et al. with some modifications [15]. […] Plasma samples above the calibration curve range were diluted, along with quality control (QC) samples, and values were accepted when the interpolated concentrations were within 15% of the nominal values. […] Analyte separation and detection were performed on a Sciex Exion HPLC system equipped with a C18 analytical column (Phenomenex Synergi 4 µm Fusion-RP 80A; 50 mm × 2 mm with a guard column) and coupled to a hybrid triple-quadrupole/linear ion trap mass spectrometer (Sciex QTrap 6500+ or 7500+, Framingham, MA, USA). A 0.6 mL/min gradient of 0.005% formic acid in water and 0.005% formic acid in acetonitrile was used to elute the analytes within a 5 min time window. […] The internal standard was the MTM oxime–tryptophan [5]. […]"}, "[8]": {"test": "Cassette microdose plasma PK in male athymic nude mice, 69 µg/kg (Study 5)", "method": "as §1, §2"}, "[9]": {"test": "Stability of dosing solutions", "settings": "[…]; 5% Solutol HS-15/95% PBS pH 8)"}, "[10]": {"design": "method as in doi:10.1158/1535-7163.TARG-23-B150", "settings": "across different multi-day dosing schedules; cited from earlier work"}, "[11]": {"system": "plasma from Sprague Dawley rats", "test": "Plasma protein binding by rapid equilibrium dialysis, rat plasma", "method": "as §3, §5"}, "[12]": {"settings": "female athymic nude mice, 0.3 mg/kg IV bolus"}, "[13]": {"settings": "female athymic nude mice, 1 mg/kg IV bolus"}, "[14]": {"settings": "female athymic nude mice, 3 mg/kg IV bolus"}, "[15]": {"settings": "female athymic nude mice, 5 mg/kg IV bolus"}, "[16]": {"settings": "female athymic nude mice, 10 mg/kg IV bolus"}, "[17]": {"settings": "male rat, 28 µg/kg each, cassette IV bolus"}, "[18]": {"settings": "male mouse, 69 µg/kg each, cassette IV bolus"}}, "note": "Like-named read-outs stand apart in the source and are kept apart here."}
{"molecule": "CO[C@H](C(O)C(C)=O)[C@@H]1Cc2cc3cc(OC4C[C@@H](OC5C[C@@H](O)[C@H](O)C(C)O5)[C@H](O)C(C)O4)c(C)c(O)c3c(O)c2C(=O)[C@H]1OC1C[C@@H](OC2C[C@@H](OC3C[C@](C)(O)[C@H](O)C(C)O3)[C@@H](O)C(C)O2)[C@H](O)C(C)O1", "note": "(some centres unmarked) [MTM-SK]", "values": [{"measurement": "systemic clearance", "setting": "[1]; in vivo", "result": "high systemic clearance"}]}
{"molecule": "CO[C@@H]([C@@H]1Cc2cc3cc(O[C@H]4CC(O[C@H]5CC(O)[C@H](O)C(C)O5)[C@H](O)C(C)O4)c(C)c(O)c3c(O)c2C(=O)[C@H]1O[C@H]1CC(O[C@H]2CC(O[C@H]3CC(O)[C@H](O)C(C)O3)[C@@H](O)C(C)O2)[C@H](O)C(C)O1)[C@@H](O)C(C)=O", "note": "(some centres unmarked) [EC-8042]", "values": [{"measurement": "systemic clearance", "setting": "[1]; same as MTM", "result": "high systemic clearance"}]}
{"molecule": "mithramycin SA-Trp [MTMSA-Trp]", "values": [{"measurement": "AUC0–inf", "setting": "[2]", "result": "38,564 ng/mL·h"}, {"measurement": "CL", "setting": "[2]", "result": 52, "unit": "mL/h/kg"}, {"measurement": "Extrapolated AUC0–inf", "setting": "[2]", "result": 8.07, "unit": "%"}, {"measurement": "Terminal t1/2", "setting": "[2]", "result": 1.85, "unit": "h"}, {"measurement": "Vd", "setting": "[2]", "result": 138, "unit": "mL/kg"}, {"measurement": "estimated systemic clearance, average", "setting": "average over 1, 3, 5, and 10 mg/kg, female athymic nude mice", "result": "approximately 41 mL/h/kg"}, {"measurement": "AUC0–inf", "setting": "[12]", "result": 4373, "unit": "ng·h/mL"}, {"measurement": "CL", "setting": "[12]", "result": 69, "unit": "mL/h/kg"}, {"measurement": "Extrapolated AUC0–inf", "setting": "[12]", "result": 0.4, "unit": "%"}, {"measurement": "Vd", "setting": "[12]", "result": 45, "unit": "mL/kg"}, {"measurement": "t1/2", "setting": "[12]", "result": 0.5, "unit": "h"}, {"measurement": "AUC0–inf", "setting": "[13]", "result": "24,419 ng/mL·h"}, {"measurement": "CL", "setting": "[13]", "result": 41, "unit": "mL/h/kg"}, {"measurement": "Extrapolated AUC0–inf", "setting": "[13]", "result": 0.2, "unit": "%"}, {"measurement": "Vd", "setting": "[13]", "result": 75, "unit": "mL/kg"}, {"measurement": "t1/2", "setting": "[13]", "result": 1.3, "unit": "h"}, {"measurement": "AUC0–inf", "setting": "[14]", "result": "91,778 ng/mL·h"}, {"measurement": "CL", "setting": "[14]", "result": 33, "unit": "mL/h/kg"}, {"measurement": "Extrapolated AUC0–inf", "setting": "[14]", "result": 0.2, "unit": "%"}, {"measurement": "Vd", "setting": "[14]", "result": 123, "unit": "mL/kg"}, {"measurement": "t1/2", "setting": "[14]", "result": 2.6, "unit": "h"}, {"measurement": "CL", "setting": "[15]", "result": 36, "unit": "mL/h/kg"}, {"measurement": "Extrapolated AUC0–inf", "setting": "[15]", "result": 6.5, "unit": "%"}, {"measurement": "Vd", "setting": "[15]", "result": 80, "unit": "mL/kg"}, {"measurement": "t1/2", "setting": "[15]", "result": 1.5, "unit": "h"}, {"measurement": "AUC0–inf", "setting": "[16]", "result": "216,281 ng/mL·h"}, {"measurement": "CL", "setting": "[16]", "result": 46, "unit": "mL/h/kg"}, {"measurement": "Extrapolated AUC0–inf", "setting": "[16]", "result": 5.6, "unit": "%"}, {"measurement": "Vd", "setting": "[16]", "result": 81, "unit": "mL/kg"}, {"measurement": "t1/2", "setting": "[16]", "result": 1.2, "unit": "h"}, {"measurement": "linear kinetics range", "setting": "female athymic nude mice, IV bolus", "result": "1 to 10", "unit": "mg/kg"}, {"measurement": "dose proportionality", "setting": "mice, 1, 3, and 10 mg/kg doses", "result": "linear pharmacokinetics"}, {"measurement": "AUC0–inf", "setting": "[3]", "result": 3486, "unit": "ng·h/mL"}, {"measurement": "CL", "setting": "[3]", "result": 143, "unit": "mL/h/kg"}, {"measurement": "Extrapolated AUC0–inf", "setting": "[3]", "result": 1.43, "unit": "%"}, {"measurement": "Terminal t1/2", "setting": "[3]", "result": 1.56, "unit": "h"}, {"measurement": "Vd", "setting": "[3]", "result": 324, "unit": "mL/kg"}, {"measurement": "Fraction Unbound (%)", "setting": "human plasma; 1 µM", "result": "<1", "unit": "%"}, {"measurement": "Fraction Unbound (%)", "setting": "human plasma; 3 µM", "result": "<1", "unit": "%"}, {"measurement": "Fraction Unbound (%)", "setting": "human plasma; 10 µM", "result": "<1", "unit": "%"}, {"measurement": "unbound fraction", "setting": "human plasma; across tested concentrations", "result": "< 1", "unit": "%"}, {"measurement": "AUC0–inf", "setting": "[4]", "result": 181, "unit": "ng·h/mL"}, {"measurement": "CL", "setting": "[4]", "result": 23, "unit": "mL/h/kg"}, {"measurement": "Extrapolated AUC0–inf", "setting": "[4]", "result": 4.99, "unit": "%"}, {"measurement": "Terminal t1/2", "setting": "[4]", "result": 46.8, "unit": "min"}, {"measurement": "Vd", "setting": "[4]", "result": 26, "unit": "mL/kg"}, {"measurement": "AUC0–inf", "setting": "[5]; [17]", "result": 223, "unit": "ng·h/mL"}, {"measurement": "CL", "setting": "[5]; [17]", "result": 126, "unit": "mL/h/kg"}, {"measurement": "Extrapolated AUC0–inf", "setting": "[5]; [17]", "result": 8.4, "unit": "%"}, {"measurement": "Terminal t1/2", "setting": "[5]; [17]", "result": 2.4, "unit": "h"}, {"measurement": "Vd", "setting": "[5]; [17]", "result": 428, "unit": "mL/kg"}, {"measurement": "change of systemic clearance between microgram- and milligram-level doses", "setting": "[5]; rats, 28 µg/kg vs 0.5 mg/kg", "result": "remained similar"}, {"measurement": "Fraction Unbound (%)", "setting": "[6]; 1 µM", "result": "<1", "unit": "%"}, {"measurement": "Fraction Unbound (%)", "setting": "[6]; 3 µM", "result": "<1", "unit": "%"}, {"measurement": "Fraction Unbound (%)", "setting": "[6]; 10 µM", "result": "<1", "unit": "%"}, {"measurement": "unbound fraction", "setting": "[6]; nu/nu mouse plasma, across tested concentrations (1, 3, 10 µM)", "result": "< 1", "unit": "%"}, {"measurement": "Fraction Unbound (%)", "setting": "[7]; 1 µM", "result": "1.03 ± 0.27", "unit": "%"}, {"measurement": "Fraction Unbound (%)", "setting": "[7]; 3 µM", "result": "1.02 ± 0.09", "unit": "%"}, {"measurement": "Fraction Unbound (%)", "setting": "[7]; 10 µM", "result": "1.14 ± 0.15", "unit": "%"}, {"measurement": "AUC0–inf", "setting": "[8]; [18]", "result": 569, "unit": "ng·h/mL"}, {"measurement": "CL", "setting": "[8]; [18]", "result": 121, "unit": "mL/h/kg"}, {"measurement": "Extrapolated AUC0–inf", "setting": "[8]; [18]", "result": 3.2, "unit": "%"}, {"measurement": "Terminal t1/2", "setting": "[8]; [18]", "result": 1.8, "unit": "h"}, {"measurement": "Vd", "setting": "[8]; [18]", "result": 318, "unit": "mL/kg"}, {"measurement": "change of systemic clearance between microgram- and milligram-level doses", "setting": "[8]; mice, 69 µg/kg vs 2 mg/kg", "result": "approximately 0.4 fold"}, {"measurement": "stability of dosing solution following formulation", "setting": "[9]", "result": "at least 11 days"}, {"measurement": "maximum tolerated doses", "setting": "[10]", "result": "1 to 3", "unit": "mg/kg"}, {"measurement": "Fraction Unbound (%)", "setting": "[11]; 1 µM", "result": "2.41 ± 1.29", "unit": "%"}, {"measurement": "Fraction Unbound (%)", "setting": "[11]; 3 µM", "result": "3.85 ± 0.08", "unit": "%"}, {"measurement": "Fraction Unbound (%)", "setting": "[11]; 10 µM", "result": "3.88 ± 0.54", "unit": "%"}]}
{"molecule": "CO[C@H](C(=O)C(C)=O)[C@@H]1Cc2cc3cc(OC4C[C@@H](OC5C[C@@H](O)[C@H](O)C(C)O5)[C@H](O)C(C)O4)c(C)c(O)c3c(O)c2C(=O)[C@H]1OC1C[C@@H](OC2C[C@@H](OC3C[C@](C)(O)[C@H](O)C(C)O3)[C@@H](O)C(C)O2)[C@H](O)C(C)O1", "note": "(some centres unmarked) [MTM-SDK]", "values": [{"measurement": "systemic clearance", "setting": "[1]; in vivo", "result": "high systemic clearance"}]}
{"molecule": "COC(=O)[C@H](Cc1c[nH]c2ccccc12)NC(=O)[C@H](Cc1ccccc1)NC(=O)CO/N=C(\\[C@@H](O)[C@@H](C)O)[C@@H](OC)[C@@H]1Cc2cc3cc(O[C@H]4C[C@@H](O[C@H]5C[C@@H](O)[C@H](O)[C@@H](C)O5)[C@H](O)[C@@H](C)O4)c(C)c(O)c3c(O)c2C(=O)[C@H]1O[C@H]1C[C@@H](O[C@H]2C[C@@H](O[C@H]3C[C@](C)(O)[C@H](O)[C@@H](C)O3)[C@@H](O)[C@@H](C)O2)[C@H](O)[C@@H](C)O1", "note": "[MTMox32E]", "values": [{"measurement": "systemic clearance", "setting": "[1]; in vivo", "result": "low systemic clearance"}]}
